Data on 5 molecules can be found in patent US5393768A, “Leukotriene antagonists” (Eli Lilly and Company, priority 1993, dated 1995).

The target of assay [1] is T1, LTD4 evoked contractions of guinea pig ileum (Cavia porcellus, UniProt Q2NNR5).
T1 construct: A section of terminal ileum was removed, the lumen cleaned, and the tissue divided into 2.5 cm. segments; from tissue; host or cells: terminal ileum of male Hartley guinea pigs
T1 sequence (Q2NNR5 1-340): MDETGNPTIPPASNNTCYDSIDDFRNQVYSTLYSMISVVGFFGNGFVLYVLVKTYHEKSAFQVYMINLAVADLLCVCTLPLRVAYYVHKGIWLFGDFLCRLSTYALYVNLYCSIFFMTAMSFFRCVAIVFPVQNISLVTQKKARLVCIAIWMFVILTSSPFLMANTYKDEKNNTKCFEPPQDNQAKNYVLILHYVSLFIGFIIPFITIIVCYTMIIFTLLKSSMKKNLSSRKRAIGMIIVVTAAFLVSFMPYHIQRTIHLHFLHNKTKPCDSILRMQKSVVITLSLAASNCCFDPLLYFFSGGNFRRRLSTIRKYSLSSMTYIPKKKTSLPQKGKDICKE
Kind of assay: LTD4 antagonism, cumulative concentration-response curves (Schild pA2). The class given is cell-based. The note with it: 30 minute incubation, negative log of KB. As for the experimental part:
For some of the drugs in this series a more detailed analysis of LTD4 antagonism was made. In these experiments, cumulative concentration-response curves were obtained to LTD4 in guinea pig ileum and trachea. This was followed by a 30 minute incubation with various concentrations of the experimental drug. The concentration response curve to LTD4 was then repeated in the presence of the antagonist. Only one concentration of antagonist was used on a single tissue. KB values were calculated by the method of Furchgott [Ann. N.Y. Acad. Sci., 139, 553 (1967)] using the following equation. [formula]
Dose ratio refers to the concentration of agonist required to elicit 50 percent of the maximal response (ED50) in the presence of the antagonist divided by the ED50 in the absence of the antagonist. Calculations were performed with the aid of a computer and a digital plotter.

Assay [2] deals with LTD4 evoked contractions of guinea pig ileum. Kind of assay: Percent inhibition of LTD4 evoked ileal contractions (single submaximal LTD4 response, 5 minute drug exposure). The class given is cell-based, guinea pig (male, Hartley). Conditions: Cavia porcellus; for inhibition at 1 µM: Compound concentration 1 × 10^-6 M; for inhibition at 0.3 µM: Compound concentration 3 × 10^-7 M; for inhibition at 0.1 µM: Compound concentration 1 × 10^-7 M. As for the experimental part:
Male, Hartley guinea pigs weighing 200-450 grams were killed by decapitation. A section of terminal ileum was removed, the lumen cleaned, and the tissue divided into 2.5 cm. segments. The ilea were mounted in 10 ml. tissue baths containing Krebs-bicarbonate solution of the following composition in mmoles/-liter: KCl, 4.6; CaCl2 ·2H2 O, 1.2; KH2 PO4, 1.2; MgSO4 ·7H2 O, 1.2; NaCl, 118.2; NaHCO3, 24.8; and dextrose, 10.0. The bath fluid was maintained at 37° C. and aerated with 95 percent oxygen and 5 percent CO2. In addition, the buffer contained 1×10^-6 M atropine to reduce ileal spontaneous activity. Isometric measurements were made with a Grass FTO3C force-displacement transducer and recorded on a Grass polygraph as change in grams of force. A passive force of 0.5 g. was applied to the tissues. After an appropriate equilibration period, single submaximal control responses to pure LTD4 were obtained. Following a five minute exposure of the ileum to an experimental drug, the control concentration of LTD was added to the tissue bath. The response of the ileum to LTD4 in the presence of the drug was compared to the response in the absence of the drug.

Consider `CCCc1c(C=Cc2ccc(-c3nn[nH]n3)cc2)ccc(C(C)=O)c1O` [Example 45, 5-[4-(2-[4-Acetyl-3-hydroxy-2-propylphenyl]ethenyl)phenyl]-tetrazole], for which, in assay [1], the Kb (usually the affinity of an antagonist, worked out from how it opposes an agonist) is 0.186 µM. In addition, in assay [2], the inhibition (in general, the share of the control response that was lost under treatment) at 1 µM stood at 74% and 0.3 µM produced 57% inhibition.
In turn, `CCCc1c(CNc2ccc(C(=O)O)cc2)ccc(C(C)=O)c1O` [Example 47, 4-(4-Acetyl-3-hydroxy-2-propylbenzylamino)benzoic acid] gave an antagonist dissociation constant (Kb) in assay [1] of 0.49 µM. In assay [2], this molecule had an inhibition at 1 µM of 70% and an inhibition at 0.3 µM of 36%.
As for `CCCc1c(COCCCCc2nnn[nH]2)ccc(C(C)=O)c1O` [Example 49, 5-[4-(4-Acetyl-3-hydroxy-2-propylbenzyloxy)butyl]-tetrazole], the Kb in assay [1] is 0.55 µM. In assay [2], this molecule showed an inhibition at 1 µM of 64% and an inhibition at 0.3 µM of 36%.
Turning to `CCCc1c(COCCOc2ccc(-c3nnn[nH]3)cc2)ccc(C(C)=O)c1O` [Example 52, 5-(4-[2-(4-Acetyl-3-hydroxy-2-propylbenzyloxy)ethoxy]phenyl)-tetrazole], the Kb in assay [1] is 0.049 µM. In assay [2], this molecule registered an inhibition at 0.1 µM of 67% and an inhibition at 0.3 µM of 83%. In addition, in assay [2] (Compound concentration 3 × 10^-8 M), 0.03 µM produced 39% inhibition.
`CCCc1c(C[S+]([O-])Cc2ccc(-c3nnn[nH]3)cc2)ccc(C(C)=O)c1O` (centres unmarked) [Example 53, 5-[4-(4-Acetyl-3-hydroxy-2-propylbenzylsulfinylmethyl)phenyl]-tetrazole] gave an antagonist dissociation constant (Kb) in assay [1] of 6.31 µM. In assay [2], the inhibition at 0.1 µM turned out to be 14% and the inhibition at 0.3 µM is 4%. This molecule registered an inhibition at 3 µM in assay [2] (Compound concentration 3 × 10^-6 M) of 39%.
